Experiment: Enzymatic bleaching of softwood sulfate pulp with laccase and mediator; kappa number determined after NaOH extraction
Settings: laccase from Trametes versicolor 15 U/g of pulp; incubation time 2 hours; pH 4.5; 45° C.; oxygen pressure 1-10 bar; mediator dosage per 5 g of pulp as in table
Procedure: 5 g of bone-dry pulp (softwood O2 delignified), pulp consistency 30% (about 17 g moist) are added to the following solutions:
A) 56.5 mg of N-hydroxyacetanilide are added to 20 ml of tap water, while stirring, and the pH is adjusted with 0.5 mol/l of H2SO4 solution such that pH 4.5 results after addition of the pulp and the enzyme.
B) An amount of laccase from Trametes versicolor is added to 5 ml of tap water such that an activity of 15 U (1 U=conversion of 1 μmol of ABTS/minute/ml of enzyme) per g of pulp results.
Solutions A and B are brought together and topped up to 33 ml. After addition of the pulp, the mixture is mixed with a dough kneader for 2 minutes.
The pulp is then introduced into a reaction bomb preheated to 45° C. and incubated under an increased oxygen pressure of 1-10 bar for 1-4 hours.
Thereafter, the pulp is washed over a nylon screen (30 gm) and extracted for 1 hour at 60° C. at a pulp consistency of 2% with 8% of NaOH per g of pulp.
After renewed washing of the pulp, the kappa number is determined.

SMILES | Ligin degradation [%]
CC(=O)N(O)c1ccc(C#N)cc1 [N-hydroxy-4-cyanoacetanilide] | 35.6
O=C(Oc1ccccc1)N(O)c1ccccc1 [Phenyl N-hydroxy-N-phenylcarbamate] | 20.0
